{"source": "patent US7220420B2", "about": "“Hepatitis C virus-derived peptides capable of inducing cytotoxic T lymphocyte responses” (The Scripps Research Institute, priority 1994, dated 2007)", "key": {"[1]": {"tested_on": "peptide-pulsed HLA-A2 matched JY EBV-BCL cells"}, "[2]": {"tested_on": "peptide pulsed HLA-A2 matched JY EBV-BCL target cells", "format": "cell-based, human"}}, "note": "Like-named read-outs stand apart in the source and are kept apart here. No end group written: not given here.", "data": [{"molecule": "CC(C)C[C@H](NC(=O)[C@H](C)NC(=O)[C@H](CC(C)C)NC(=O)[C@@H](N)CC(C)C)C(=O)N[C@@H](CC(C)C)C(=O)N[C@@H](CO)C(=O)N[C@@H](CS)C(=O)N[C@@H](CC(C)C)C(=O)N[C@H](C(=O)N[C@H](C(=O)O)C(C)C)[C@@H](C)O", "note": "[SEQ ID NO:2]", "values": [{"measurement": "peptide specific cytotoxic activity %", "setting": "[1]; subject C-2, 2 weeks, E/T 80", "result": 29, "unit": "%"}, {"measurement": "peptide specific cytotoxic activity %", "setting": "[1]; subject C-2, 3 weeks, E/T 25", "result": 37, "unit": "%"}, {"measurement": "peptide specific cytotoxic activity %", "setting": "[1]; subject C-2, 4 weeks, E/T 7", "result": 33, "unit": "%"}, {"measurement": "peptide specific cytotoxic activity %", "setting": "[1]; subject C-2, 4 weeks, E/T 21", "result": 64, "unit": "%"}, {"measurement": "peptide specific cytotoxic activity %", "setting": "[1]; subject C-2, 4 weeks, E/T 64", "result": 81, "unit": "%"}, {"measurement": "peptide specific cytotoxic activity %", "setting": "[1]; subject C-2, 5 weeks, E/T 2", "result": 24, "unit": "%"}, {"measurement": "peptide specific cytotoxic activity %", "setting": "[1]; subject C-2, 5 weeks, E/T 6", "result": 57, "unit": "%"}, {"measurement": "peptide specific cytotoxic activity %", "setting": "[1]; subject C-2, 5 weeks, E/T 18", "result": 60, "unit": "%"}, {"measurement": "peptide specific cytotoxic activity %", "setting": "[1]; subject C-3, 2 weeks, E/T 80", "result": 19, "unit": "%"}, {"measurement": "peptide specific cytotoxic activity %", "setting": "[1]; subject C-3, 3 weeks, E/T 40", "result": 18, "unit": "%"}, {"measurement": "peptide specific cytotoxic activity %", "setting": "[1]; subject C-3, 4 weeks, E/T 4", "result": 20, "unit": "%"}, {"measurement": "peptide specific cytotoxic activity %", "setting": "[1]; subject C-3, 4 weeks, E/T 11", "result": 37, "unit": "%"}, {"measurement": "peptide specific cytotoxic activity %", "setting": "[1]; subject C-3, 4 weeks, E/T 33", "result": 60, "unit": "%"}, {"measurement": "peptide specific cytotoxic activity %", "setting": "[1]; subject C-3, 5 weeks, E/T 3", "result": 35, "unit": "%"}, {"measurement": "peptide specific cytotoxic activity %", "setting": "[1]; subject C-3, 5 weeks, E/T 10", "result": 52, "unit": "%"}, {"measurement": "peptide specific cytotoxic activity %", "setting": "[1]; subject C-3, 5 weeks, E/T 30", "result": 76, "unit": "%"}]}, {"molecule": "ILDSFDPLV [SEQ ID NO:42]", "values": [{"measurement": "peptide specific cytotoxic activity %", "setting": "[1]; subject C-2, Exp I, 2 weeks, E/T 40", "result": 29, "unit": "%"}, {"measurement": "peptide specific cytotoxic activity %", "setting": "[1]; subject C-2, Exp II (PBMC collected two months after Exp I), 2 weeks, E/T 40", "result": 2, "unit": "%"}, {"measurement": "peptide specific cytotoxic activity %", "setting": "[1]; subject C-2, Exp II, 3 weeks, E/T 25", "result": 3, "unit": "%"}, {"measurement": "peptide specific cytotoxic activity %", "setting": "[1]; subject C-2, Exp II, 4 weeks, E/T 10", "result": 10, "unit": "%"}, {"measurement": "peptide specific cytotoxic activity %", "setting": "[1]; subject C-2, Exp II, 4 weeks, E/T 29", "result": 29, "unit": "%"}, {"measurement": "peptide specific cytotoxic activity %", "setting": "[1]; subject C-2, Exp II, 4 weeks, E/T 88", "result": 59, "unit": "%"}, {"measurement": "peptide specific cytotoxic activity %", "setting": "[1]; subject C-2, Exp II, 5 weeks, E/T 6", "result": 20, "unit": "%"}, {"measurement": "peptide specific cytotoxic activity %", "setting": "[1]; subject C-2, Exp II, 5 weeks, E/T 19", "result": 52, "unit": "%"}, {"measurement": "peptide specific cytotoxic activity %", "setting": "[1]; subject C-2, Exp II, 5 weeks, E/T 56", "result": 83, "unit": "%"}]}, {"molecule": "LLCPAGHAV [SEQ ID NO:26]", "values": [{"measurement": "represents a CTL epitope (dagger mark)", "setting": "[2]; panel of 53 peptides, assay of Example 2", "result": "LLCPAGHAV^†"}, {"measurement": "lysis of target cells by peptide specific CTL lines (FIG. 2)", "setting": "[1]; subject C-3, lines four weeks in culture, varying effector/target cell ratio", "result": "recognize and lyse HLA A2-matched EBV-BCL in a dose dependent fashion"}]}, {"molecule": "LLFNILGGWV [SEQ ID NO:35]", "values": [{"measurement": "represents a CTL epitope (dagger mark)", "setting": "[2]", "result": "LLFNILGGWV^†"}]}]}
